Measurements reported in ChEMBL document CHEMBL1133645, “(S)-4-Methyl-2-(methylamino)pentanoic acid [4, 4-bis(4-fluorophenyl)butyl]amide hydrochloride, a novel calcium channel antagonist, is efficacious in several animal models of pain” (J Med Chem, 2000).
pIC50: −log10 of the molar value.

Tests used:
[1] = Intravenous administration of dose resulting in 50% reduction in the number of writhes in male CF-1 mice.; format: functional; conditions: Mus musculus
[2] = biological target: Voltage-gated L-type calcium channel (Rattus norvegicus, UniProt P22002+Q02485+P27732); assay: L-type calcium channel blockade in A10 smooth muscle cells by Oregon Green 488 Bapta-1 dye; format: functional, cell-based
[3] = Electrophysiology tested by the voltage clamp assay using superior cervical ganglion calcium neuron (SCGCa); format: functional, tissue-based; conditions: Rattus norvegicus
[4] = Electrophysiology tested by the voltage clamp assay using superior cervical ganglion potassium neuron (SCGK); format: functional, tissue-based; conditions: Rattus norvegicus
[5] = Electrophysiology tested by the voltage clamp assay using superior cervical ganglion sodium neuron (SCGNa); format: functional, tissue-based; conditions: Rattus norvegicus
[6] = test system: Mus musculus; assay: Intravenous administration of dose required to prevent clonic seizures and tonic extension seizure of forelimbs and hindlimbs; format: functional; conditions: Hindlimb
[7] = test system: Rattus norvegicus; assay: Oral administration of dose resulting in 50% reduction in the number of flinches per minute
[8] = test system: Rattus norvegicus; assay: Dose given at 15 and 30 mg/kg over 10 min resulting in 50% reduction in the number of flinches per minute when administarted intravenously.; conditions: iv
[9] = organism: Rattus norvegicus; assay: Intrathecal bolus injection of 12.5-100 microg of dose resulting in 50% reduction in the amount of foot withdraw responding to repeated mechanical stimuli

Compound: CN[C@@H](CC(C)C)C(=O)NCCCC(c1ccc(F)cc1)c1ccc(F)cc1.Cl
- ED50 [1]: 4.46 mg/kg
- IC50 [2]: 0.4 µM
- pIC50 [3]: 5.89
- pIC50 [4]: 5.00
- pIC50 [5]: 5.29
- ED50 [6]: 4.05 mg/kg
- ED50 [7]: 87 mg/kg
- ED50 [8]: 16 mg/kg
- ED50 [9]: 23 µg
